Target: human plasmin (Homo sapiens, UniProt P00747)
Experiment: Direct inhibition of human plasmin, chromogenic substrate
Format: biochemical
Settings: Tris-HCl buffer pH 7.4, 37 °C

human plasmin, sequence (P00747 97-580 limits assumed): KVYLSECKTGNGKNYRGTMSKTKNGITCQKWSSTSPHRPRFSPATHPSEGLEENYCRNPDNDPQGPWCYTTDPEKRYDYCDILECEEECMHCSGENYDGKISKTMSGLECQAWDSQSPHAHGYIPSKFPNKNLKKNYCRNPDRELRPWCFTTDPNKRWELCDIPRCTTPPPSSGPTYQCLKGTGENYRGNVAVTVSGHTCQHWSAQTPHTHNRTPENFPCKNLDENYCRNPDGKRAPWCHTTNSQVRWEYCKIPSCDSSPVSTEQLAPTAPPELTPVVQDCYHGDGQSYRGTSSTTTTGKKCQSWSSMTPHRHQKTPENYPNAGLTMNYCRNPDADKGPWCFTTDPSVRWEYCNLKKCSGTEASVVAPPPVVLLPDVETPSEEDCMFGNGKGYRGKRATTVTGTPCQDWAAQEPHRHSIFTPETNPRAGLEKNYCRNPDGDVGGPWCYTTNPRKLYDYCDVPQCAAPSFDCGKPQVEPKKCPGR
human plasmin, sequence (P00747 581-810 limits assumed): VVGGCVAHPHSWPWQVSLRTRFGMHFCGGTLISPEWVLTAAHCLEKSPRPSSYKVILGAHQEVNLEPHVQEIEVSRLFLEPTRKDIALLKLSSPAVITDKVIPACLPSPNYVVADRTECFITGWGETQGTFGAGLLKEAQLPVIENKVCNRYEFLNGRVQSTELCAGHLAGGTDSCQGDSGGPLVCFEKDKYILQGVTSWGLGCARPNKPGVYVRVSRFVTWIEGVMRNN

O=c1c(OS(=O)(=O)[O-])c(-c2ccc(OS(=O)(=O)[O-])c(OS(=O)(=O)[O-])c2)oc2cc(OS(=O)(=O)[O-])cc(OCCCCOc3cc(OS(=O)(=O)[O-])cc4oc(-c5ccc(OS(=O)(=O)[O-])c(OS(=O)(=O)[O-])c5)c(OS(=O)(=O)[O-])c(=O)c34)c12.[Na+].[Na+].[Na+].[Na+].[Na+].[Na+].[Na+].[Na+] [NSGM 1]
HS (Hill slope): 1.0 ± 0.2

O=c1c(OS(=O)(=O)[O-])c(-c2ccc(OS(=O)(=O)[O-])c(OS(=O)(=O)[O-])c2)oc2cc(OS(=O)(=O)[O-])cc(OCc3ccc(-c4ccc(COc5cc(OS(=O)(=O)[O-])cc6oc(-c7ccc(OS(=O)(=O)[O-])c(OS(=O)(=O)[O-])c7)c(OS(=O)(=O)[O-])c(=O)c56)cc4)cc3)c12.[Na+].[Na+].[Na+].[Na+].[Na+].[Na+].[Na+].[Na+] [NSGM 3, Sodium 4-(5-((4′-(((2-(3,4-Bis(sulfonatooxy)phenyl)-4-oxo-3,7-bis(sulfonatooxy)-4H-chromen-5-yl)oxy)methyl)-[1,1′-bi-phenyl]-4-yl)methoxy)-4-oxo-3,7-bis(sulfonatooxy)-4H-chromen-2-yl)-1,2-phenylene Bis(sulfate)]
HS (Hill slope): 0.8 ± 0.2

Cc1cc(COc2cc(OS(=O)(=O)[O-])cc3oc(-c4ccc(OS(=O)(=O)[O-])c(OS(=O)(=O)[O-])c4)c(OS(=O)(=O)[O-])c(=O)c23)c(C)cc1COc1cc(OS(=O)(=O)[O-])cc2oc(-c3ccc(OS(=O)(=O)[O-])c(OS(=O)(=O)[O-])c3)c(OS(=O)(=O)[O-])c(=O)c12.[Na+].[Na+].[Na+].[Na+].[Na+].[Na+].[Na+].[Na+] [NSGM 4, Sodium 4-(5-((4-(((2-(3,4-Bis(sulfonatooxy)phenyl)-4-oxo-3,7-bis(sulfonatooxy)-4H-chromen-5-yl)oxy)methyl)-2,5-dimethylbenzyl)oxy)-4-oxo-3,7-bis(sulfonatooxy)-4H-chromen-2-yl)-1,2-phenylene Bis(sulfate)]
HS (Hill slope): 0.7 ± 0.1

O=c1c(OS(=O)(=O)[O-])c(-c2ccc(OS(=O)(=O)[O-])c(OS(=O)(=O)[O-])c2)oc2cc(OS(=O)(=O)[O-])cc(OCc3cccc(COc4cc(OS(=O)(=O)[O-])cc5oc(-c6ccc(OS(=O)(=O)[O-])c(OS(=O)(=O)[O-])c6)c(OS(=O)(=O)[O-])c(=O)c45)c3)c12.[Na+].[Na+].[Na+].[Na+].[Na+].[Na+].[Na+].[Na+] [NSGM 5, Sodium 4-(5-((3-(((2-(3,4-Bis(sulfonatooxy)phenyl)-4-oxo-3,7-bis(sulfonatooxy)-4H-chromen-5-yl)oxy)methyl)benzyl)-oxy)-4-oxo-3,7-bis(sulfonatooxy)-4H-chromen-2-yl)-1,2-phenylene Bis(sulfate)]
HS (Hill slope): 0.6 ± 0.1

O=c1c(OS(=O)(=O)[O-])c(-c2ccc(OS(=O)(=O)[O-])c(OS(=O)(=O)[O-])c2)oc2cc(OS(=O)(=O)[O-])cc(OCc3cccc(COc4cc(OS(=O)(=O)[O-])cc5oc(-c6ccc(OS(=O)(=O)[O-])c(OS(=O)(=O)[O-])c6)c(OS(=O)(=O)[O-])c(=O)c45)n3)c12.[Na+].[Na+].[Na+].[Na+].[Na+].[Na+].[Na+].[Na+] [NSGM 6, Sodium 4-(5-((6-(((2-(3,4-Bis(sulfonatooxy)phenyl)-4-oxo-3,7-bis(sulfonatooxy)-4H-chromen-5-yl)oxy)methyl)pyridin-2-yl)methoxy)-4-oxo-3,7-bis(sulfonatooxy)-4H-chromen-2-yl)-1,2-phenylene Bis(sulfate)]
HS (Hill slope): 0.8 ± 0.2

O=c1cc(-c2ccc(OS(=O)(=O)[O-])cc2)oc2cc(OS(=O)(=O)[O-])cc(OCCOc3cc(OS(=O)(=O)[O-])cc4oc(-c5ccc(OS(=O)(=O)[O-])cc5)cc(=O)c34)c12.[Na+].[Na+].[Na+].[Na+] [NSGM 7, Sodium 4-Oxo-5-(2-((4-oxo-7-(sulfonatooxy)-2-(4-(sulfonatooxy)phenyl)-4H-chromen-5-yl)oxy)ethoxy)-2-(4-(sulfonatooxy)phenyl)-4H-chromen-7-yl Sulfate]
HS (Hill slope): 2.4 ± 0.3

O=c1cc(-c2ccc(OS(=O)(=O)[O-])cc2)oc2cc(OS(=O)(=O)[O-])cc(OCCCCOc3cc(OS(=O)(=O)[O-])cc4oc(-c5ccc(OS(=O)(=O)[O-])cc5)cc(=O)c34)c12.[Na+].[Na+].[Na+].[Na+] [NSGM 9, Sodium 4-Oxo-5-(4-((4-oxo-7-(sulfonatooxy)-2-(4-(sulfonatooxy)phenyl)-4H-chromen-5-yl)oxy)butoxy)-2-(4-(sulfonatooxy)phenyl)-4H-chromen-7-yl Sulfate]
HS (Hill slope): 1.8 ± 0.3

O=c1cc(-c2ccc(OS(=O)(=O)[O-])cc2)oc2cc(OS(=O)(=O)[O-])cc(OC/C=C/COc3cc(OS(=O)(=O)[O-])cc4oc(-c5ccc(OS(=O)(=O)[O-])cc5)cc(=O)c34)c12.[Na+].[Na+].[Na+].[Na+] [NSGM 10, Sodium (E)-4-Oxo-5-((4-((4-oxo-7-(sulfonatooxy)-2-(4-(sulfonatooxy)phenyl)-4H-chromen-5-yl)oxy)but-2-en-1-yl)-oxy)-2-(4-(sulfonatooxy)phenyl)-4H-chromen-7-yl Sulfate]
HS (Hill slope): 0.9 ± 0.2

O=c1cc(-c2ccc(OS(=O)(=O)[O-])cc2)oc2cc(OS(=O)(=O)[O-])cc(OCc3ccc(COc4cc(OS(=O)(=O)[O-])cc5oc(-c6ccc(OS(=O)(=O)[O-])cc6)cc(=O)c45)cc3)c12.[Na+].[Na+].[Na+].[Na+] [NSGM 11, Sodium 4-Oxo-5-((4-(((4-oxo-7-(sulfonatooxy)-2-(4-(sulfonatooxy)phenyl)-4H-chromen-5-yl)oxy)methyl)benzyl)-oxy)-2-(4-(sulfonatooxy)phenyl)-4H-chromen-7-yl Sulfate]
HS (Hill slope): 2.4 ± 0.3

O=c1cc(-c2ccc(OS(=O)(=O)[O-])cc2)oc2cc(OS(=O)(=O)[O-])cc(OCc3ccc(-c4ccc(COc5cc(OS(=O)(=O)[O-])cc6oc(-c7ccc(OS(=O)(=O)[O-])cc7)cc(=O)c56)cc4)cc3)c12.[Na+].[Na+].[Na+].[Na+] [NSGM 12, Sodium 4-Oxo-5-((4′-(((4-oxo-7-(sulfonatooxy)-2-(4-(sulfonatooxy)phenyl)-4H-chromen-5-yl)oxy)methyl)-[1,1′-bi-phenyl]-4-yl)methoxy)-2-(4-(sulfonatooxy)phenyl)-4H-chromen-7-yl Sulfate]
HS (Hill slope): 1.1 ± 0.1

Cc1cc(COc2cc(OS(=O)(=O)[O-])cc3oc(-c4ccc(OS(=O)(=O)[O-])cc4)cc(=O)c23)c(C)cc1COc1cc(OS(=O)(=O)[O-])cc2oc(-c3ccc(OS(=O)(=O)[O-])cc3)cc(=O)c12.[Na+].[Na+].[Na+].[Na+] [NSGM 13, Sodium 5-((2,5-Dimethyl-4-(((4-oxo-7-(sulfonatooxy)-2-(4-(sulfonatooxy)phenyl)-4H-chromen-5-yl)oxy)methyl)benzyl)-oxy)-4-oxo-2-(4-(sulfonatooxy)phenyl)-4H-chromen-7-yl Sulfate]
HS (Hill slope): 2.0 ± 0.1

O=c1cc(-c2ccc(OS(=O)(=O)[O-])cc2)oc2cc(OS(=O)(=O)[O-])cc(OCc3cccc(COc4cc(OS(=O)(=O)[O-])cc5oc(-c6ccc(OS(=O)(=O)[O-])cc6)cc(=O)c45)c3)c12.[Na+].[Na+].[Na+].[Na+] [NSGM 14, Sodium 4-Oxo-5-((3-(((4-oxo-7-(sulfonatooxy)-2-(4-(sulfonatooxy)phenyl)-4H-chromen-5-yl)oxy)methyl)benzyl)-oxy)-2-(4-(sulfonatooxy)phenyl)-4H-chromen-7-yl Sulfate]
HS (Hill slope): 2.3 ± 0.5

— PMC8788145 (Journal of medicinal chemistry, 2017)
